# Results taken from patent US11691972B2, “Compounds for targeted degradation of BRD9” (C4 Therapeutics, Inc., priority 2020, dated 2023).
# Molecular target: T1, BRD9 (Homo sapiens, UniProt Q9H8M2)
# T1 sequence (Q9H8M2 1-597): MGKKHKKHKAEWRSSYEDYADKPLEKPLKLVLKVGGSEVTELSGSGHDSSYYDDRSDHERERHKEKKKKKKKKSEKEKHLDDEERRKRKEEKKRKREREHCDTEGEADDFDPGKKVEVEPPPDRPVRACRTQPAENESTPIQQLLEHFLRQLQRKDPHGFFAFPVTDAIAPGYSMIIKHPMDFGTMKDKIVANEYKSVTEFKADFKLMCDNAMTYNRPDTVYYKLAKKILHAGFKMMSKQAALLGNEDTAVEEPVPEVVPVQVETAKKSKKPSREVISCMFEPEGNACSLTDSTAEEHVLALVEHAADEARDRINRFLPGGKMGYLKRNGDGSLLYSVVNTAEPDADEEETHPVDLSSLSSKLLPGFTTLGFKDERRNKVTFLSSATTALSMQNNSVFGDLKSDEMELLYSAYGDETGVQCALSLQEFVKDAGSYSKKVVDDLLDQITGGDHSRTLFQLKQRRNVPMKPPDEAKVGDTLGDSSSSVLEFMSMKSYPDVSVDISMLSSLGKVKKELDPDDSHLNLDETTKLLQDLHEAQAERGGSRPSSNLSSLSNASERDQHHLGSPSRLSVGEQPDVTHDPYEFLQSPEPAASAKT
# Experiment: HiBiT BRD9 degradation assay in 293T.166 (BRD9-HiBiT) cells
# Assay type: cell-based
# Parameters: endogenously expressing BRD9 with HiBiT fusion tag via CRISPR; host or cells: 293T.166 (BRD9-HiBiT), also expressing LgBiT ectopically
# Settings: Table 1; 293T.166 cells, 2.0 hours; class symbols; read-out: HiBiT-Degradation 293T.166 BRD9 2.0 hours (DC50)
# Summary of the method: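 293T.166 cells carrying endogenous CRISPR BRD9-HiBiT and expressing LgBiT treated 2 h at 37° C. with compounds, 11-point half-log titration from 10 μM in duplicate. Remaining BRD9 measured as lytic HiBiT luminescence; untreated cells as negative control, no-reagent wells as positive control.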
row,Compound,DC50
1,COc1cc(-c2cn(C)c(=O)c3cnccc23)cc(OC)c1CN1CCc2c(CC3CCN(c4ccc(NC5CCC(=O)NC5=O)cc4C(F)(F)F)CC3)cccc2C1 (stereo not shown) [Compound 237],< 100 nM
2,CN(C(=O)N1CCC(c2ccc(NC3CCC(=O)NC3=O)cc2)CC1)C1CCN(Cc2ccc(-c3cn(C)c(=O)c4cc(F)ccc34)cc2OC(F)(F)F)CC1(F)F (stereo not shown) [Compound 123],< 100 nM
3,"COc1cc(-c2cn(C)c(=O)c3[nH]ncc23)cc(OC)c1CNc1ccc(CC(=O)N2CCC(c3ccc(NC4CCC(=O)NC4=O)cc3)CC2)cc1 (stereo not shown) [Compound 165, 3-[4-[1-[2-[4-[[2,6-dimethoxy-4-(6-methyl-7-oxo-1H-pyrazolo[3,4-c]pyridin-4-yl)phenyl]methylamino]phenyl]acetyl]-4-piperidyl]anilino]piperidine-2,6-dione]",< 100 nM
4,COc1cc(-c2cn(C)c(=O)c3cnccc23)cc(Cl)c1CN1CCC(C2CCN(c3ccc(NC4CCC(=O)NC4=O)cc3)CC2)CC1 (stereo not shown) [Compound 72],< 100 nM
5,COc1cc(-c2cn(C)c(=O)c3[nH]ncc23)cc(Cl)c1C(=O)N1CCC(C2CCN(c3ccc(NC4CCC(=O)NC4=O)nc3)CC2)CC1 (stereo not shown) [Compound 222],< 100 nM
6,"COc1cc(-c2cn(C)c(=O)c(C)c2C)cc(OC)c1CN1CCC(N2CCN(c3ccc(NC4CCC(=O)NC4=O)cc3F)CC2)C(F)(F)C1 (single isomer, unassigned) [Compound 175, 3-[4-[4-[1-[[2,6-dimethoxy-4-(1,4,5-trimethyl-6-oxo-3-pyridyl)phenyl]methyl]-3,3-difluoro-4-piperidyl]piperazin-1-yl]-3-fluoro-anilino]piperidine-2,6-dione]",< 100 nM
7,COc1cc(-c2cn(C)c(=O)c3cnccc23)cc(F)c1C(=O)N1CCC(C2CCN(c3ccc(NC4CCC(=O)NC4=O)cc3F)CC2)CC1 (stereo not shown) [Compound 215],< 100 nM
8,COc1cc(-c2cn(C)c(=O)c(C)c2C)cc(Cl)c1C(=O)N1CCC(N2CCC(c3ccc(NC4CCC(=O)NC4=O)cc3)C(F)(F)C2)CC1 (stereo not shown) [Compound 229],< 100 nM
9,COc1cc(-c2cn(C)c(=O)c(C)c2C)cc(Cl)c1C(=O)N1CCC(N(C)C(=O)N2CCC(c3ccc(NC4CCC(=O)NC4=O)cc3F)CC2)CC1 (stereo not shown) [Compound 140],< 100 nM
10,COc1cc(-c2cn(C)c(=O)c(C)c2C)cc(OC)c1CN1CCC(N2CCN(c3ccc(NC4CCC(=O)NC4=O)cc3Cl)CC2)C(F)(F)C1 (stereo not shown) [Compound 187],< 100 nM
11,COc1cc(-c2cn(C)c(=O)c3cnccc23)cc(Cl)c1CN1CCC(N2CCN(c3ccc(NC4CCC(=O)NC4=O)cc3Cl)CC2)C(F)(F)C1 (stereo not shown) [Compound 186],< 100 nM
12,Cn1cc(-c2cc(Cl)c(C(=O)N3CCN(C(=O)CN4CCC(c5ccc(NC6CCC(=O)NC6=O)cc5)CC4)CC3)cc2Cl)c2cn[nH]c2c1=O (stereo not shown) [Compound 48],100 to 500 nM
13,"COc1cc(-c2cn(C)c(=O)c3cnccc23)cc(Cl)c1CN1CCC(N2CCN(c3ccc(NC4CCC(=O)NC4=O)cc3F)CC2)C(F)(F)C1 (single isomer, unassigned) [Compound 178, 3-[4-[4-[1-[[2-chloro-6-methoxy-4-(2-methyl-1-oxo-2,7-naphthyridin-4-yl)phenyl]methyl]-3,3-difluoro-4-piperidyl]piperazin-1-yl]-3-fluoro-anilino]piperidine-2,6-dione]",< 100 nM
14,"COc1cc(-c2cn(C)c(=O)c3[nH]ncc23)cc(OC)c1CN1CCN(C(=O)Cc2ccc(NC3CCC(=O)NC3=O)cc2F)CC1 (stereo not shown) [Compound 41, 3-[4-[2-[4-[[2,6-dimethoxy-4-(6-methyl-7-oxo-1H-pyrazolo[3,4-c]pyridin-4-yl)phenyl]methyl]piperazin-1-yl]-2-oxo-ethyl]-3-fluoro-anilino]piperidine-2,6-dione]",< 100 nM
15,COc1cc(-c2cn(C)c(=O)c3[nH]ncc23)cc(OC)c1CNc1ccc2c(c1)CCN(C(=O)C1CCN(c3ccc(NC4CCC(=O)NC4=O)cc3)CC1)C2 (stereo not shown) [Compound 170],< 100 nM
16,COc1cc(-c2cn(C)c(=O)c3[nH]ncc23)cc(Cl)c1CN1CCC(C2CCN(c3ccc(NC4CCC(=O)NC4=O)cc3Cl)CC2)CC1 (stereo not shown) [Compound 75],< 100 nM

row,Compound,DC50
1,COc1cc(-c2cn(C)c(=O)c(C)c2C)cc(Cl)c1CN1CCC(C2CCN(c3ccc(NC4CCC(=O)NC4=O)cc3F)CC2)CC1 (stereo not shown) [Compound 74],< 100 nM
2,COc1cc(-c2cn(C)c(=O)c3[nH]ncc23)cc(OC)c1CN1CCC2(CC1)CN(C(=O)CN1CCC(c3ccc(NC4CCC(=O)NC4=O)cc3)CC1)C2 (stereo not shown) [Compound 4],< 100 nM
3,COc1cc(-c2cn(C)c(=O)c3[nH]ncc23)cc(OC)c1CN1CCc2c(CC3CCN(c4ccc(NC5CCC(=O)NC5=O)cc4F)CC3)cccc2C1 (stereo not shown) [Compound 106],< 100 nM
4,COc1cc(-c2cn(C)c(=O)c3[nH]ncc23)cc(Cl)c1CN1CCc2c(cccc2CN2CCC(c3ccc(NC4CCC(=O)NC4=O)cc3)C(F)(F)C2)C1 (stereo not shown) [Compound 100],< 100 nM
5,"COc1cc(-c2cn(C)c(=O)c(C)c2C)cc(OC)c1CN1CCC(N2CCN(c3ccc(NC4CCC(=O)NC4=O)cc3F)CC2)C(F)(F)C1 (single isomer, unassigned) [Compound 174, 3-[4-[4-[1-[[2,6-dimethoxy-4-(1,4,5-trimethyl-6-oxo-3-pyridyl)phenyl]methyl]-3,3-difluoro-4-piperidyl]piperazin-1-yl]-3-fluoro-anilino]piperidine-2,6-dione]",< 100 nM
6,COc1cc(-c2cn(C)c(=O)c3ccccc23)cc(OC)c1CN1CCN(C(=O)CC2CCN(c3ccc(NC4CCC(=O)NC4=O)cc3C(F)(F)F)CC2)CC1 (stereo not shown) [Compound 62],< 100 nM
7,COc1cc(-c2cn(C)c(=O)c3cnccc23)cc(Cl)c1C(=O)N1CCC(N(C)C(=O)N2CCC(c3ccc(NC4CCC(=O)NC4=O)cc3F)CC2)CC1 (stereo not shown) [Compound 142],< 100 nM
8,"COc1cc(-c2cn(C)c(=O)c3[nH]ncc23)cc(OC)c1CN1CCN(C(=O)CN2CCC(c3ccc(NC4CCC(=O)NC4=O)cc3)CC2)CC1 (stereo not shown) [Compound 1, 3-[4-[1-[2-[4-[[2,6-dimethoxy-4-(6-methyl-7-oxo-1H-pyrazolo[3,4-c]pyridin-4-yl)phenyl]methyl]piperazin-1-yl]-2-oxo-ethyl]-4-piperidyl]anilino]piperidine-2,6-dione]",< 100 nM
9,"Cc1c(-c2ccc(C(=O)N3CCC(C4CCN(c5ccc(NC6CCC(=O)NC6=O)cc5F)CC4)CC3)c(OC(F)(F)F)c2)cn(C)c(=O)c1C (single isomer, unassigned) [Compound 214, 3-[3-fluoro-4-[4-[1-[2-(trifluoromethoxy)-4-(1,4,5-trimethyl-6-oxo-3-pyridyl)benzoyl]-4-piperidyl]-1-piperidyl]anilino]piperidine-2,6-dione]",< 100 nM
10,COc1cc(-c2cn(C)c(=O)c3cnccc23)cc(Cl)c1CN1CCc2c(CC3CCN(c4ccc(NC5CCC(=O)NC5=O)cc4F)CC3)cccc2C1 (stereo not shown) [Compound 107],< 100 nM
11,COc1cc(-c2cn(C)c(=O)c3[nH]ncc23)cc(Cl)c1CN1CCC(CC(=O)N2CCC(c3ccc(NC4CCC(=O)NC4=O)cc3)CC2)CC1 (stereo not shown) [Compound 43],< 100 nM
12,COc1cc(-c2cn(C)c(=O)c(C)c2C)cc(Cl)c1C=C1CCN(C(=O)CC2CCN(c3ccc(NC4CCC(=O)NC4=O)cc3F)CC2)CC1 (stereo not shown) [Compound 163],< 100 nM
13,Cn1cc(-c2ccc(CN3CCN(C(=O)CC4CCN(c5ccc(NC6CCC(=O)NC6=O)cc5)CC4)CC3)c(OC(F)(F)F)c2)c2cn[nH]c2c1=O (stereo not shown) [Compound 51],< 100 nM
14,CN(C(=O)N1CCC(c2ccc(NC3CCC(=O)NC3=O)cc2F)CC1)C1CCN(C(=O)c2ccc(-c3cn(C)c(=O)c4cc(F)ccc34)cc2OC(F)(F)F)CC1 (stereo not shown) [Compound 141],< 100 nM
15,COc1cc(CN2CCN(C(=O)CN3CCC(c4ccc(NC5CCC(=O)NC5=O)cc4)CC3)CC2)c(OC(C)C)cc1-c1cn(C)c(=O)c2[nH]ncc12 (stereo not shown) [Compound 26],< 100 nM

# Same assay, conditions: Table 1; 293T.166 cells, 2.0 hours; numeric bound; read-out: HiBiT-Degradation 293T.166 BRD9 2.0 hours (DC50)
row,Compound,DC50
1,"Cc1c(-c2ccc(C(=O)N3CCC(C4CCN(c5ccc(NC6CCC(=O)NC6=O)cc5F)CC4)CC3)c(OC(F)(F)F)c2)cn(C)c(=O)c1C (single isomer, unassigned) [Compound 213, 3-[3-fluoro-4-[4-[1-[2-(trifluoromethoxy)-4-(1,4,5-trimethyl-6-oxo-3-pyridyl)benzoyl]-4-piperidyl]-1-piperidyl]anilino]piperidine-2,6-dione]",> 800 nM

# Same assay, conditions: Table 2; 293T.166 cells, 2.0 hours; class symbols; read-out: HiBiT-Degradation 293T.166 BRD9 2.0 hours (DC50)
row,Compound,DC50
1,"C/C=C/Cn1cc(-c2cc(OC)c(CN3CCC(N4CCN(c5ccc(NC6CCC(=O)NC6=O)cc5F)CC4)C(F)(F)C3)c(OC)c2)c(C)c(C)c1=O (stereo not shown) [Compound 265, 3-[4-[4-[1-[[4-[1-[(E)-but-2-enyl]-4,5-dimethyl-6-oxo-3-pyridyl]-2,6-dimethoxy-phenyl]methyl]-3,3-difluoro-4-piperidyl]piperazin-1-yl]-3-fluoro-anilino]piperidine-2,6-dione]",< 100 nM
2,COc1cc(-c2cn(C)c(=O)c3cnccc23)cc(Cl)c1C(=O)N1CCC(F)(C2CCN(c3ccc(NC4CCC(=O)NC4=O)cc3F)CC2)CC1 (stereo not shown) [Compound 275],< 100 nM
